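48-hour exposure; five concentrations; linearly interpolated endpoints. GI50 = concentration required for 50% inhibition of growth. The concentration for full growth arrest is given as TGI.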
Tests used:
Test in all cases: NCI-60 cell line screen, 48 h
HOP-92 NSCLC = system: HOP-92 NSCLC
SK-MEL-5 melanoma = system: SK-MEL-5 melanoma
SN12C renal = system: SN12C renal
KM12 colon = system: KM12 colon
SF-268 CNS = system: SF-268 CNS
HCC-2998 colon = system: HCC-2998 colon
UO-31 renal = system: UO-31 renal
HT29 colon = system: HT29 colon
COLO 205 colon = system: COLO 205 colon
SW-620 colon = system: SW-620 colon
A498 renal = system: A498 renal
MALME-3M melanoma = system: MALME-3M melanoma
T-47D breast = system: T-47D breast
NCI-H522 lung = system: NCI-H522 lung
NCI-H23 lung = system: NCI-H23 lung
CCRF-CEM leukemia = system: CCRF-CEM leukemia
M14 melanoma = system: M14 melanoma
SR leukemia = system: SR leukemia
TK-10 renal = system: TK-10 renal
MDA-MB-231 breast = system: MDA-MB-231 breast
U251 CNS = system: U251 CNS
A549 NSCLC = system: A549 NSCLC
EKVX NSCLC = system: EKVX NSCLC
SNB-75 CNS = system: SNB-75 CNS
CAKI-1 renal = system: CAKI-1 renal
OVCAR-4 ovarian = system: OVCAR-4 ovarian
OVCAR-5 ovarian = system: OVCAR-5 ovarian
K-562 leukemia = system: K-562 leukemia
786-0 renal = system: 786-0 renal
RPMI-8226 leukemia = system: RPMI-8226 leukemia
SK-MEL-28 melanoma = system: SK-MEL-28 melanoma
MOLT-4 leukemia = system: MOLT-4 leukemia
NCI-H226 lung = system: NCI-H226 lung
MCF7 breast = system: MCF7 breast
NCI/ADR-RES ovarian = system: NCI/ADR-RES ovarian
SK-MEL-2 melanoma = system: SK-MEL-2 melanoma
UACC-62 melanoma = system: UACC-62 melanoma
DU-145 prostate = system: DU-145 prostate
ACHN renal = system: ACHN renal
SF-295 CNS = system: SF-295 CNS
HCT-116 colon = system: HCT-116 colon
OVCAR-8 ovarian = system: OVCAR-8 ovarian
IGROV1 ovarian = system: IGROV1 ovarian
SK-OV-3 ovarian = system: SK-OV-3 ovarian
LOX IMVI melanoma = system: LOX IMVI melanoma
HCT-15 colon = system: HCT-15 colon
NCI-H460 lung = system: NCI-H460 lung
RXF 393 renal = system: RXF 393 renal
MDA-MB-435 = system: MDA-MB-435
HOP-62 NSCLC = system: HOP-62 NSCLC
SNB-19 CNS = system: SNB-19 CNS
HS 578T breast = system: HS 578T breast
BT-549 breast = system: BT-549 breast
PC-3 prostate = system: PC-3 prostate
OVCAR-3 ovarian = system: OVCAR-3 ovarian
HL-60(TB) leukemia = system: HL-60(TB) leukemia
UACC-257 melanoma = system: UACC-257 melanoma

Which GI50 (HOP-92 NSCLC) does the source give for `CC1OC(n2c3ccccc3c3c4c(c5c6ccccc6[nH]c5c32)C(=O)N(CCN[C@@H]2CCC[C@H]2N)C4=O)CC(O)C1O` (some centres undefined) here?
The GI50 was 2.31 µM.

And the TGI (HOP-92 NSCLC)?
The TGI was 9.06 µM.

What about the GI50 (SK-MEL-5 melanoma) of the same molecule?
The GI50 was 1.22 µM.

What about the TGI (SK-MEL-5 melanoma) of the same molecule?
The TGI was 3.68 µM.

And the GI50 (SN12C renal)?
Its GI50 is 1.48 µM.

And the TGI (SN12C renal)?
Its TGI is 6.5 µM.

And the GI50 (KM12 colon)?
The GI50 was 1.35 µM.

And the TGI (KM12 colon)?
Its TGI is 6.11 µM.

What about the GI50 (SF-268 CNS) of the same molecule?
The GI50 was 1.48 µM.

And the TGI (SF-268 CNS)?
Its TGI is 8.06 µM.

And the GI50 (HCC-2998 colon)?
Its GI50 is 3.23 µM.

And the TGI (HCC-2998 colon)?
The TGI was 11.4 µM.

What about the GI50 (UO-31 renal) of the same molecule?
The GI50 was 6.45 µM.

And the TGI (UO-31 renal)?
Its TGI is 15 µM.

And the GI50 (HT29 colon)?
The GI50 was 1.33 µM.

What about the TGI (HT29 colon) of the same molecule?
Its TGI is 5.46 µM.

And the GI50 (COLO 205 colon)?
The GI50 was 1.01 µM.

And the TGI (COLO 205 colon)?
The TGI was 4.19 µM.

What about the GI50 (SW-620 colon) of the same molecule?
The GI50 was 1.05 µM.

What about the TGI (SW-620 colon) of the same molecule?
The TGI was 5.71 µM.

And the GI50 (A498 renal)?
Its GI50 is 1.93 µM.

What about the TGI (A498 renal) of the same molecule?
The TGI was 8.24 µM.

And the GI50 (MALME-3M melanoma)?
The GI50 was 2.06 µM.

What about the TGI (MALME-3M melanoma) of the same molecule?
Its TGI is 9.07 µM.

And the GI50 (T-47D breast)?
Its GI50 is 1.04 µM.

And the TGI (T-47D breast)?
The TGI was 6.46 µM.

And the GI50 (NCI-H522 lung)?
The GI50 was 0.962 µM.

And the TGI (NCI-H522 lung)?
Its TGI is 5.26 µM.

And the GI50 (NCI-H23 lung)?
Its GI50 is 1.7 µM.

And the TGI (NCI-H23 lung)?
The TGI was 7.6 µM.

What about the GI50 (CCRF-CEM leukemia) of the same molecule?
Its GI50 is 1.25 µM.

And the TGI (CCRF-CEM leukemia)?
Its TGI is 6.27 µM.

And the GI50 (M14 melanoma)?
The GI50 was 1.63 µM.

What about the TGI (M14 melanoma) of the same molecule?
Its TGI is 7.14 µM.

What about the GI50 (SR leukemia) of the same molecule?
The GI50 was 0.439 µM.

And the TGI (SR leukemia)?
The TGI was 3.94 µM.

And the GI50 (TK-10 renal)?
Its GI50 is 2.98 µM.

And the TGI (TK-10 renal)?
The TGI was 11 µM.

And the GI50 (MDA-MB-231 breast)?
The GI50 was 1.88 µM.

What about the TGI (MDA-MB-231 breast) of the same molecule?
Its TGI is 8.16 µM.

What about the GI50 (U251 CNS) of the same molecule?
Its GI50 is 1.05 µM.

And the TGI (U251 CNS)?
Its TGI is 5.74 µM.

And the GI50 (A549 NSCLC)?
The GI50 was 2.48 µM.

What about the TGI (A549 NSCLC) of the same molecule?
Its TGI is 9.17 µM.

And the GI50 (EKVX NSCLC)?
The GI50 was 1.8 µM.

What about the TGI (EKVX NSCLC) of the same molecule?
Its TGI is 8.35 µM.

What about the GI50 (SNB-75 CNS) of the same molecule?
The GI50 was 0.918 µM.

And the TGI (SNB-75 CNS)?
The TGI was 5.68 µM.

And the GI50 (CAKI-1 renal)?
Its GI50 is 6.24 µM.

What about the TGI (CAKI-1 renal) of the same molecule?
Its TGI is 12.9 µM.

And the GI50 (OVCAR-4 ovarian)?
Its GI50 is 1.72 µM.

What about the TGI (OVCAR-4 ovarian) of the same molecule?
Its TGI is 7.06 µM.

And the GI50 (OVCAR-5 ovarian)?
Its GI50 is 3.66 µM.

What about the TGI (OVCAR-5 ovarian) of the same molecule?
The TGI was 11.6 µM.

And the GI50 (K-562 leukemia)?
Its GI50 is 0.85 µM.

And the TGI (K-562 leukemia)?
The TGI was 2.76 µM.

And the GI50 (786-0 renal)?
Its GI50 is 2.35 µM.

What about the TGI (786-0 renal) of the same molecule?
Its TGI is 9.9 µM.

What about the GI50 (RPMI-8226 leukemia) of the same molecule?
Its GI50 is 1.14 µM.

What about the TGI (RPMI-8226 leukemia) of the same molecule?
Its TGI is 2.89 µM.

What about the GI50 (SK-MEL-28 melanoma) of the same molecule?
The GI50 was 2.65 µM.

And the TGI (SK-MEL-28 melanoma)?
Its TGI is 9.59 µM.

And the GI50 (MOLT-4 leukemia)?
Its GI50 is 0.747 µM.

What about the TGI (MOLT-4 leukemia) of the same molecule?
The TGI was 4.74 µM.

What about the GI50 (NCI-H226 lung) of the same molecule?
Its GI50 is 1.79 µM.

What about the TGI (NCI-H226 lung) of the same molecule?
The TGI was 8.82 µM.

What about the GI50 (MCF7 breast) of the same molecule?
The GI50 was 0.768 µM.

And the TGI (MCF7 breast)?
The TGI was 2.05 µM.

What about the GI50 (NCI/ADR-RES ovarian) of the same molecule?
The GI50 was greater than 50 µM.

What about the TGI (NCI/ADR-RES ovarian) of the same molecule?
The TGI was greater than 50 µM.

What about the GI50 (SK-MEL-2 melanoma) of the same molecule?
Its GI50 is 3.68 µM.

And the TGI (SK-MEL-2 melanoma)?
The TGI was 11.8 µM.

What about the GI50 (UACC-62 melanoma) of the same molecule?
The GI50 was 0.872 µM.

What about the TGI (UACC-62 melanoma) of the same molecule?
Its TGI is 2.8 µM.

What about the GI50 (DU-145 prostate) of the same molecule?
The GI50 was 2.22 µM.

What about the TGI (DU-145 prostate) of the same molecule?
The TGI was 8.31 µM.

What about the GI50 (ACHN renal) of the same molecule?
The GI50 was 2.97 µM.

And the TGI (ACHN renal)?
The TGI was 10.5 µM.

And the GI50 (SF-295 CNS)?
Its GI50 is 1.74 µM.

And the TGI (SF-295 CNS)?
Its TGI is 7.04 µM.

And the GI50 (HCT-116 colon)?
Its GI50 is 1.32 µM.

And the TGI (HCT-116 colon)?
Its TGI is 5.54 µM.

What about the GI50 (OVCAR-8 ovarian) of the same molecule?
Its GI50 is 1.93 µM.

And the TGI (OVCAR-8 ovarian)?
The TGI was 9.11 µM.

And the GI50 (IGROV1 ovarian)?
The GI50 was 1.87 µM.

What about the TGI (IGROV1 ovarian) of the same molecule?
Its TGI is 9.68 µM.

What about the GI50 (SK-OV-3 ovarian) of the same molecule?
The GI50 was 2.51 µM.

What about the TGI (SK-OV-3 ovarian) of the same molecule?
The TGI was 9.09 µM.

And the GI50 (LOX IMVI melanoma)?
The GI50 was 0.835 µM.

And the TGI (LOX IMVI melanoma)?
The TGI was 2.68 µM.

What about the GI50 (HCT-15 colon) of the same molecule?
Its GI50 is 5.88 µM.

What about the TGI (HCT-15 colon) of the same molecule?
Its TGI is 12.6 µM.

And the GI50 (NCI-H460 lung)?
The GI50 was 0.744 µM.

What about the TGI (NCI-H460 lung) of the same molecule?
Its TGI is 1.57 µM.

And the GI50 (RXF 393 renal)?
The GI50 was 1.68 µM.

What about the TGI (RXF 393 renal) of the same molecule?
The TGI was 7.45 µM.

And the GI50 (MDA-MB-435)?
Its GI50 is 1.44 µM.

And the TGI (MDA-MB-435)?
Its TGI is 6.46 µM.

And the GI50 (HOP-62 NSCLC)?
The GI50 was 1.74 µM.

What about the TGI (HOP-62 NSCLC) of the same molecule?
Its TGI is 7.24 µM.

What about the GI50 (SNB-19 CNS) of the same molecule?
The GI50 was 1.39 µM.

What about the TGI (SNB-19 CNS) of the same molecule?
Its TGI is 6.58 µM.

And the GI50 (HS 578T breast)?
Its GI50 is 1.63 µM.

And the TGI (HS 578T breast)?
Its TGI is 9.73 µM.

What about the GI50 (BT-549 breast) of the same molecule?
The GI50 was 1.74 µM.

What about the TGI (BT-549 breast) of the same molecule?
Its TGI is 8.85 µM.

And the GI50 (PC-3 prostate)?
The GI50 was 1.55 µM.

What about the TGI (PC-3 prostate) of the same molecule?
The TGI was 6.13 µM.

What about the GI50 (OVCAR-3 ovarian) of the same molecule?
The GI50 was 1.71 µM.

And the TGI (OVCAR-3 ovarian)?
Its TGI is 6.82 µM.

What about the GI50 (HL-60(TB) leukemia) of the same molecule?
Its GI50 is 1.26 µM.

And the TGI (HL-60(TB) leukemia)?
The TGI was 8.23 µM.

And the GI50 (UACC-257 melanoma)?
Its GI50 is 3.73 µM.

And the TGI (UACC-257 melanoma)?
Its TGI is 10.5 µM.

From PubChem BioAssay (NCI)
